Experimental data: patent publication EP1931657B1, “NOVEL HIGH AFFINITY QUINOLINE-BASED KINASE LIGANDS” (Merck Sharp & Dohme Corp., priority 2005, dated 2007)

Biological target: CDK-2 (Homo sapiens, UniProt P24941)
Assay: CDK-2 inhibition, fluorescence polarization displacement assay
Method: Binding assays were performed in a 384 well Costar NBS coated plate. […] The concentration of BMS-Alexa Fluor647 was 50 nM. Serial dilutions of compounds were added to 12 wells. The final buffer concentration was 10 mM Hepes, pH 7.5, 150 mM NaCl, and 1 mM DTT. Samples were incubated at room temperature for 15 minutes and then read in an Analyst HT instrument using an excitation and emission wavelength of 580 and 680 nm, respectively.

Structure (SMILES)	IC50 [µM]
COC(=O)[C@H](Cc1ccc(O)cc1)NC(=O)c1cc(C(=O)O)c2cc(-c3ccc(OC)c(F)c3)ccc2n1 [Compound 113]	1 to 40
N#CC[C@H](Cc1ccc(O)cc1)NC(=O)c1cc(C(=O)O)c2cc(CCc3ccccc3)ccc2n1 [Compound 116]	1 to 40
COC[C@H](Cc1ccc(O)cc1)NC(=O)c1cc(C(=O)O)c2cc(C#Cc3ccccn3)ccc2n1 [Compound 125]	1 to 40
COC[C@H](Cc1ccc(O)cc1)NC(=O)c1cc(C(=O)O)c2cc(COc3ccc(C(F)(F)F)cc3)ccc2n1 [Compound 129]	1 to 40
COC(=O)[C@H](Cc1ccc(O)cc1)NC(=O)c1cc(C(=O)O)c2cc(-c3cccnc3)ccc2n1 [Compound 130]	1 to 40
COC(=O)[C@H](Cc1ccc(O)cc1)NC(=O)c1cc(C(=O)O)c2cc(-c3ccc4ccccc4c3)ccc2n1 [Compound 133]	1 to 40
COC(=O)[C@H](Cc1ccc(O)cc1)NC(=O)c1cc(C(=O)O)c2cc(-c3ccc(F)cc3)ccc2n1 [Compound 135]	1 to 40
COC[C@H](Cc1ccc(O)cc1)NC(=O)c1cc(NS(=O)(=O)C(C)(C)C)c2cc(-c3cccc(N4CCOCC4)c3)ccc2n1 [Compound 136]	1 to 40
COC[C@H](Cc1ccc(O)cc1)NC(=O)c1cc(C(=O)O)c2cc(C#Cc3cccnc3)ccc2n1 [Compound 137]	1 to 40
COC[C@H](Cc1ccc(O)cc1)NC(=O)c1cc(NS(=O)(=O)C(C)(C)C)c2cc(-c3cccc(COc4cccnc4)c3)ccc2n1 [Compound 139]	1 to 40
COC[C@H](Cc1ccc(O)cc1)NC(=O)c1cc(C(=O)O)c2cc(-c3cccc(COc4cccnc4)c3)ccc2n1 [Compound 141]	1 to 40
COC(=O)[C@H](Cc1ccc(O)cc1)NC(=O)c1cc(C(=O)O)c2cc(-c3ccc(N)cc3)ccc2n1 [Compound 145]	1 to 40
COC[C@H](Cc1ccc(O)cc1)NC(=O)c1cc(C(=O)O)c2cc(COc3ccc(Cl)c(F)c3)ccc2n1 [Compound 146]	1 to 40
COC[C@H](Cc1ccc(O)cc1)NC(=O)c1cc(C(=O)O)c2cc(C#Cc3ccccc3C(F)(F)F)ccc2n1 [Compound 148]	1 to 40
COC(=O)[C@H](Cc1ccc(O)cc1)NC(=O)c1cc(C(=O)O)c2cc(-c3ccccc3OC)ccc2n1 [Compound 151]	1 to 40
COC[C@H](Cc1ccc(O)cc1)NC(=O)c1cc(C(=O)O)c2cc(C#CCCC#N)ccc2n1 [Compound 152]	1 to 40
COC(=O)C(Cc1ccc(O)cc1)NC(=O)c1cc(C(=O)NC(C)(C)C(=O)O)c2cc(-c3cccs3)ccc2n1 (centres unmarked) [Compound 154]	> 40
COC(=O)[C@H](Cc1c[nH]cn1)NC(=O)c1cc(C(=O)O)c2cc(-c3cccs3)ccc2n1 [Compound 156]	> 40
COC(=O)[C@H](Cc1ccc(O)cc1)NC(=O)c1cc(C(=O)O)c2cc(-c3ccc(S(C)(=O)=O)cc3)ccc2n1 [Compound 157]	> 40
COC(=O)[C@H](Cc1ccc(O)cc1)NC(=O)c1cc(C(=O)O)c2cc(-c3cccc(NC(C)=O)c3)ccc2n1 [Compound 158]	> 40
COC(=O)[C@H](Cc1ccc(O)cc1)NC(=O)c1cc(C(=O)O)c2cc(Cc3ccccc3)ccc2n1 [Compound 159]	> 40
COC(=O)[C@H](Cc1cccnc1)NC(=O)c1cc(C(=O)O)c2cc(-c3cccc(C(F)(F)F)c3)ccc2n1 [Compound 164]	> 40

Structure (SMILES)	IC50 [µM]
COC(=O)[C@H](Cc1ccc(OC(C)(C)C)cc1)NC(=O)c1cc(C(=O)O)c2cc(-c3cccc(C(F)(F)F)c3)ccc2n1 [Compound 166]	> 40
COC(=O)[C@H](Cc1ccc(OC)cc1)NC(=O)c1cc(S(C)(=O)=O)c2cc(-c3cccc(C(F)(F)F)c3)ccc2n1 [Compound 171]	> 40
COC[C@H](Cc1ccc(O)cc1)NC(=O)c1cc(S(C)(=O)=O)c2cc(-c3cccc(C(F)(F)F)c3)ccc2n1 [Compound 172]	> 40
COC[C@H](Cc1ccc(O)cc1)NC(=O)c1cc(C(=O)OCCO)c2cc(-c3cccc(C(F)(F)F)c3)ccc2n1 [Compound 173]	> 40
COC[C@H](Cc1ccc(O)cc1)NC(=O)c1cc(C(=O)OCC(O)CO)c2cc(-c3cccc(C(F)(F)F)c3)ccc2n1 (some centres unmarked) [Compound 174]	> 40
CCCCOC(=O)c1cc(C(=O)N[C@H](COC)Cc2ccc(O)cc2)nc2ccc(-c3cccc(C(F)(F)F)c3)cc12 [Compound 177]	> 40
COC[C@H](Cc1ccc(O)cc1)NC(=O)c1cc(C(=O)O)c2cc(COc3ccccc3)ccc2n1 [Compound 180]	> 40
NC[C@H](Cc1ccc(O)cc1)NC(=O)c1cc(C(=O)O)c2cc(CCc3ccccc3)ccc2n1 [Compound 181]	> 40
NCC[C@H](Cc1ccc(O)cc1)NC(=O)c1cc(C(=O)O)c2cc(CCc3ccccc3)ccc2n1 [Compound 182]	> 40
CCN(CC)Cc1cccc(-c2ccc3nc(C(=O)N[C@H](COC)Cc4ccc(O)cc4)cc(C(=O)O)c3c2)c1 [Compound 183]	> 40
COC[C@H](Cc1ccc(O)cc1)NC(=O)c1cc(C(=O)O)c2cc(C#CCN(C)C)ccc2n1 [Compound 185]	> 40
COC[C@H](Cc1ccc(O)cc1)NC(=O)c1cc(C(=O)O)c2cc(CCc3cccnc3)ccc2n1 [Compound 187]	> 40
COC[C@H](Cc1ccc(O)cc1)NC(=O)c1cc(C(=O)O)c2cc(/C=C/c3cccnc3)ccc2n1 [Compound 188]	> 40
COC[C@H](Cc1ccc(O)cc1)NC(=O)c1cc(C(=O)O)c2cc(-c3cccc(CN(C)C)c3)ccc2n1 [Compound 190]	> 40
COC[C@H](Cc1ccc(O)cc1)NC(=O)c1cc(C(=O)O)c2cc(-c3cccc(CN(C)CCO)c3)ccc2n1 [Compound 191]	> 40
COC[C@H](Cc1ccc(O)cc1)NC(=O)c1cc(C(=O)O)c2cc(-c3cccc(CNC(CO)CO)c3)ccc2n1 [Compound 197]	> 40
COC[C@H](Cc1ccc(O)cc1)NC(=O)c1cc(C(=O)O)c2cc(COc3ccc(OC)cc3)ccc2n1 [Compound 200]	> 40
COC[C@H](Cc1ccc(O)cc1)NC(=O)c1cc(C(=O)O)c2cc(COc3ccccc3OC)ccc2n1 [Compound 201]	> 40
COC[C@H](Cc1ccc(O)cc1)NC(=O)c1cc(C(=O)O)c2cc(COc3ccc(O)cc3)ccc2n1 [Compound 202]	> 40
COC[C@H](Cc1ccc(O)cc1)NC(=O)c1cc(C(=O)O)c2cc(C#CCCCCN)ccc2n1 [Compound 203]	> 40
COC[C@H](Cc1ccc(O)cc1)NC(=O)c1cc(C(=O)O)c2cc(C#Cc3ccncc3)ccc2n1 [Compound 204]	> 40
COC[C@H](Cc1ccc(O)cc1)NC(=O)c1cc(C(=O)O)c2cc(C#CCN3CCS(=O)(=O)CC3)ccc2n1 [Compound 205]	> 40

Structure (SMILES)	IC50 [µM]
CCOC(=O)C#Cc1ccc2nc(C(=O)N[C@H](COC)Cc3ccc(O)cc3)cc(C(=O)O)c2c1 [Compound 206]	> 40
COC[C@H](Cc1ccc(O)cc1)NC(=O)c1cc(C(=O)O)c2cc(COc3ccccn3)ccc2n1 [Compound 207]	> 40
COC[C@H](Cc1ccc(O)cc1)NC(=O)c1cc(C(=O)O)c2cc(CSc3ccncc3)ccc2n1 [Compound 208]	> 40
COC[C@H](Cc1ccc(O)cc1)NC(=O)c1cc(C(=O)O)c2cc(CSc3ccccn3)ccc2n1 [Compound 210]	> 40
COC[C@H](Cc1ccc(O)cc1)NC(=O)c1cc(C(=O)O)c2cc(CN(C)C)ccc2n1 [Compound 211]	> 40
COC[C@H](Cc1ccc(O)cc1)NC(=O)c1cc(-n2cccn2)c2cc(-c3cccc(Cn4cccn4)c3)ccc2n1 [Compound 213]	> 40
COC[C@H](Cc1ccc(O)cc1)NC(=O)c1cc(C(=O)OCCO)c2cc(/C=C/c3ccc(Cl)cc3)ccc2n1 [Compound 214]	> 40
COC[C@H](Cc1ccc(O)cc1)NC(=O)c1cc(C(=O)OCC(O)CO)c2cc(/C=C/c3ccc(Cl)cc3)ccc2n1 (some centres unmarked) [Compound 215]	> 40
CCOC(=O)c1cc(C(=O)N[C@H](COC)Cc2ccc(O)cc2)nc2ccc(/C=C/c3ccc(Cl)cc3)cc12 [Compound 217]	> 40
COC[C@H](Cc1ccc(O)cc1)NC(=O)c1cc(C(=O)OCCN(C)C)c2cc(/C=C/c3ccc(Cl)cc3)ccc2n1 [Compound 218]	> 40
COC[C@H](Cc1ccc(O)cc1)NC(=O)c1cc(C(=O)O)c2cc(C#CCCCCN3CCN(C)CC3)ccc2n1 [Compound 219]	> 40
COC[C@H](Cc1ccc(O)cc1)NC(=O)c1cc(C(=O)O)c2cc(C#CCCCN3CCN(C)CC3)ccc2n1 [Compound 220]	> 40
CC(C)(C)S(=O)(=O)Nc1cc(C(=O)N[C@H](CN)Cc2ccc(O)cc2)nc2ccc(C#Cc3ccccn3)cc12 [Compound 225]	> 40
COC(=O)[C@H](Cc1ccc(O)cc1)NC(=O)c1cc(C(=O)O)c2cc(-c3cncnc3)ccc2n1 [Compound 226]	> 40
COC(=O)[C@H](Cc1ccc(O)cc1)NC(=O)c1cc(C(N)=O)c2cc(-c3cccs3)ccc2n1 [Compound 227]	> 40
COC(=O)[C@H](Cc1ccc(O)cc1)NC(=O)c1cc(C(=O)OCC(N)C(C)C)c2cc(-c3cccs3)ccc2n1 (some centres unmarked) [Compound 228]	> 40
COC(=O)c1cc(C(=O)N[C@@H](Cc2ccc(O)cc2)C(=O)OC)nc2ccc(-c3cccs3)cc12 [Compound 229]	> 40
COC(=O)[C@H](Cc1ccc(O)cc1)NC(=O)c1cc(C(=O)OCCO)c2cc(-c3cccs3)ccc2n1 [Compound 230]	> 40
CCCCOC(=O)c1cc(C(=O)N[C@@H](Cc2ccc(O)cc2)C(=O)OC)nc2ccc(-c3cccs3)cc12 [Compound 231]	> 40
COC(=O)[C@H](Cc1ccc(O)cc1)NC(=O)c1cc(C(=O)Nc2nnn[nH]2)c2cc(-c3cccs3)ccc2n1 [Compound 234]	> 40
COC(=O)C(Cc1ccc(O)cc1)NC(=O)c1cc(C(=O)NC(C)C)c2cc(-c3cccs3)ccc2n1 (centres unmarked) [Compound 235]	> 40
